Values quoted from earlier work as cited in US20210128691A1 (priority 2019, published 2021).
Values belong to the compound of their own block, whether it stands above or below them.

What was measured:
pre-eclampsia = conditions: dietary supplements, high risk patients
cyclic nucleotide PDE = conditions: rats made hypothyroid with increased PDE activity
[1] = in vivo

SMILES: N=C(N)NCCC[C@H](N)C(=O)O [L-arginine]
- incidence of PE (pre-eclampsia): significantly reduce, but not eliminate

- time to peak levels following ingestion: one to two
- rise of serum concentration (amount of drug in circulation) (following ingestion): 250% to 600
SMILES: N[C@@H](Cc1cc(I)c(Oc2ccc(O)c(I)c2)c(I)c1)C(=O)O [T3, L-tri-iodothyronine]
- PDE activity after administration (cyclic nucleotide PDE): returned to normal

- half-life [1]: 120 to 170 h
SMILES: N[C@@H](Cc1cc(I)c(Oc2cc(I)c(O)c(I)c2)c(I)c1)C(=O)O [T4, L-thyroxine]

- half-life [1]: 17 to 18 h
SMILES: CN1CC(=O)N2[C@H](c3ccc4c(c3)OCO4)c3[nH]c4ccccc4c3C[C@@H]2C1=O [tadalafil]
